The values below come from US20120094963A1, “TARGETING PRODRUGS AND COMPOSITIONS FOR THE TREATMENT OF GASTROINTESTINAL DISEASES” (of Queen Elizabeth near Dublin, priority 2008, published 2012).

Values joined by “and” are separate entries in the source; they are usually repeats but may differ in a detail not shown here. Equal values may be shown once. Read-outs that look alike come from different tables or passages of the source.

For data set [1], the system named is small intestinal polyps. The following applies: 50 mg/kg qd p.o.; APCmin mice; cited from earlier work.
Data set [2] has as its system intestinal polyps. The following applies: 100 ppm in the diet; min mice; cited from earlier work.
The conditions of data set [3]: cited from earlier work; for risk of heart attack: VIGOR study patients.
The conditions of data set [4]: BHI media without bacteria.
Data set [5] concerns Clostridium perfringens. The conditions noted are these: anaerobic, 37° C.; for Celecoxib prodrug concentration: C. perfringens in BHI.
For data set [6] the following is noted: APPROVe; beginning after 18 months of therapy; cited from earlier work.
For data set [7] the following is noted: long-term (33 months) high-dose, 400 and 800 mg daily; cited from earlier work.

For the molecule `C#Cc1cccc(Nc2ncnc3cc(OCCOC)c(OCCOC)cc23)c1` [erlotinib], in data set [1], the “inhibition in total polyp number” value is 57%, the “reduction in the number of 1- to 2-mm-sized polyps” value was 46%, the “reduction in the number of <1-mm-sized polyps” value is given as 43% and the “reduction in the number of large-sized (>2 mm) polyps” value is given as 96%.

Consider `CC(C)c1c(C(=O)Nc2ccccc2)c(-c2ccccc2)c(-c2ccc(F)cc2)n1CC[C@@H](O)C[C@@H](O)CC(=O)O` [atorvastatin], for which the intestinal polyp formation entry in data set [2] is “significantly (P<0.002) suppressed intestinal polyp formation”.

Regarding `COc1ccc2cc([C@H](C)C(=O)O)ccc2c1` [naproxen], the “risk of heart attack” value in data set [3] was 0.1%.

`Cc1ccc(-c2cc(C(F)(F)F)nn2-c2ccc(S(=O)(=O)NC(=O)CCc3ccccc3/N=N/c3ccc(O)c(C(=O)O)c3)cc2)cc1` [PC1, 2-Hydroxy-5-(2-3{-oxo-3[4-(5-p-tolyl-3-trifluoromethyl-pyrazol-1-yl)-benzenesulfonylamino]-propyl}-phenylazo)-benzoic acid]: the “Celecoxib prodrug in BHI” value in data set [4] (0 hours) is 16.70 µM; in data set [4] (2 hours) it was 18.40 µM; in data set [4] (4 hours) it was 17.14 µM; in data set [4] (6 hours) it was 15.29 µM; in data set [4] (8 hours), 15.15 µM; in data set [4] (24 hours), 16.99 µM. In addition, the Celecoxib prodrug concentration in data set [5] (0 hours) is 15.59 µM and 14.97 µM; in data set [5] (8 hours) it was 0.00 µM; in data set [5] (24 hours), 0.00 µM. Further, the “Azoreductase activity of Clostridium perfringens towards the prodrug” value in data set [5] is reported as “Azoreductase activity was observed”.

Consider `CS(=O)(=O)c1ccc(C2=C(c3ccccc3)C(=O)OC2)cc1` [rofecoxib], for which, in data set [6], the “risk of adverse thrombotic cardiovascular events” value is recorded as “increased relative risk of adverse thrombotic cardiovascular events”. Moreover, the “risk of heart attack” value in data set [3] was 0.4%. For the same molecule, in data set [3] (VIGOR study, naproxen patients compared with rofecoxib patients), the “RR of heart attack” value is 0.25.

In the case of `Cc1ccc(-c2cc(C(F)(F)F)nn2-c2ccc(S(N)(=O)=O)cc2)cc1` [celecoxib], the cardiovascular risk result in data set [7] is “increased cardiovascular risk compared with placebo”.
